Where “and” joins values, the source holds several entries; their conditions need not be identical. Equal entries are not always repeated.
How the values were obtained:
dNCS-1 = biological target: T1, dNCS-1 (Drosophila melanogaster, UniProt Q9VWX8); assay: Protein-directed DCL, HPLC-MS relative peak area with and without dNCS-1
T1 construct: made in house; host or cells: E. coli
T1 sequence (Q9VWX8 1-187): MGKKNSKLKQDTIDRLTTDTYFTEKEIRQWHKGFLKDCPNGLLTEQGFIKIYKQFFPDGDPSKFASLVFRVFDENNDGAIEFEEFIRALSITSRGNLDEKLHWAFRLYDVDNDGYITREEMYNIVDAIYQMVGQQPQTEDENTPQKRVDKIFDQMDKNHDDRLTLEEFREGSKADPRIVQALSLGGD
Method: The reversibility of the DCL was evident, since an identical equilibrium distribution to that shown in Fig. 4a was obtained when two different starting points were employed. The observed degree of amplification was 3b > 3e ≥ 3d > 3a. The precise composition of the DCL (with and without dNCS-1), was assessed by measuring the relative peak area (RPA). Indeed, the normalized change of RPA was used to quantify the protein influence in the final outcome (Supplementary Figs. 9, 10 and Supplementary Tables 1, 2 and 3)[28]. […] Note that compounds 3a–3e can exist as E/Z isomers of the C = N bond. […].
Aldehyde 1 (1.2 μL, 50 mM, DMSO), the five acylhydrazides 2a–2e (5 × 3.6 μL, 50 mM, DMSO), p-anisidine (1 μL, 12 M, DMSO) and buffer 20 mM Tris, 0.5 M NaCl and 1 mM CaCl2, 1 mM DTT at pH 7.4 (750 μL) in 3.3 % DMSO. The mixture was stabilized in 5 h at 4 °C. HPLC analysis was performed.
Aldehyde 1 (1.2 μL, 50 mM, DMSO), the five acylhydrazides 2a–2e (5 × 3.6 μL, 50 mM, DMSO), p-anisidine (1 μL, 12 mM, DMSO) and dNCS-1 in buffer 20 mM Tris, 0.5 M NaCl and 1 mM CaCl2, 1 mM DTT at pH 7.4 (66.7 μM, 750 μL, 1 eq.). The experiment is in 3.3% DMSO. The mixture was stabilized for 5 h at 4 °C. Then, dNCS-1 was removed by ultrafiltration using an Amicon Ultra filter (0.5–10 KDa). HPLC analysis was performed and the traces were compared with the blank composition.
Supplementary Figure 9. Relative Peak Area of the DCL with and without dNCS1. Aldehyde
1 (1.2 µL, 50 mM), 2a-e (3.6 µL, 50 mM), catalyst (1 µL, 12 M), dNCS-1:1 [1:1], tris buffer (20
mM, pH 7.4), 1 mM CaCl2, 0.5 M NaCl, 1 mM DTT, T = 4 °C, 2% DM SO. Mean relative peak
area (RPA) of each acylhydrazone of the library in the absence (blank) and presence of dNCS-1.
Error bars indicate standard deviation (SD) over three experiments. The calculation is set by the
sum of all peak areas to 100% and assigning each peak its percentage. Source data are provided
R P A N o rm aliz ed V a riation
Supplementary Figure 10. RPA normalized of variation of DCL with and without dNCS1.
Aldehyde 1 (1.2 µL, 50 mM), 2a-e (3.6 µL, 50 mM), catalyst (1 µL, 12 M), dNCS-1:1 [1:1], tris
buffer (20 mM, pH 7.4), 1 mM CaCl2, 0.5 M NaCl, 1 mM DTT, T = 4 °C, 2% DM SO. Error
bars indicate SD over three experiments. Source data are provided as a Source Data file.

[1] = commercial drugs; ref 5 (Hou et al., 2004); cited from earlier work
[2] = Parallel artificial membrane permeability assay (PAMPA-BBB); format: in vitro ADME; settings: for Pe (10-6 cm s-1) Experimental 1 / Pe (10-6 cm s-1) Experimental 2 / Pe (10-6 cm s-1) Experimental 3: source data; for Papp at 2.5 h: pig, PAMPA-BBB, pH 7.4, 5% DMSO, 2 h 30 min at 25 °C, mean ± SD, read-out: Pe, in vitro permeability
Text: The PAMPA methodology is a high-throughput technique to predict passive permeability through biological membranes that employs a brain lipid porcine as membrane. […]
From this equation and following the pattern established in the literature for BBB permeation prediction2 we could classify compounds as CNS + when they present a permeability > 4.50 x 10-6 cm s-1. Source data are provided as a Source Data file. […]
Parallel artificial membrane permeability assays. Prediction of the brain penetration was evaluated using a parallel artificial membrane permeability assay (PAMPA).4 Ten commercial drugs, phosphate buffer saline solution at pH 7.4 (PBS). DMSO and dodecane were purchased from Sigma, Across organics, Aldrich and Fluka. The porcine […]
plate was a 96-well filtrate plate (Multiscreen® IP Sterile Plate PDVF membrane, pore […]
MAIPS4510) and the acceptor plate was an indented 96-well plate (Multiscreen®, catalog no. MAMCS9610) both from Millipore. Filter PDVF […]
membrane units (diameter 30 mm, pore size 0.45 µm) from Symta were used to filter the samples. A 96-well plate UV reader (Thermoscientific, Multiskan spectrum) was used for the UV measurements.

NCS-1/Ric8a interaction = tested on: NCS-1/Ric8a interaction; parameters: method as in PMID 28119500, PMID 29966094; settings: cited from earlier work

With `O=C(N/N=C/c1ccc([N+](=O)[O-])c(O)c1)c1cccs1` [3e] the “RPA, Blank DCL” value (dNCS-1; as fraction of total area) was 0.3277, the “RPA, Templated DCL” value (dNCS-1; as fraction of total area, with dNCS-1) was 0.4342 and the “RPA (%) with protein (templated DCL)” value (dNCS-1; relative peak area in presence of dNCS-1) was 43.4% and 43.4187%. The “RPA (%) without protein (blank DCL)” value (dNCS-1; relative peak area, sum of all peak areas set to 100%) was 32.8% and 32.7742%, the RPA (%), Blank DCL (dNCS-1; sheet Supplementary Figure 10) was 32.8% and the RPA (%), Templated DCL (dNCS-1; sheet Supplementary Figure 10, with dNCS-1) was 43.4%.
In the case of `CC(=O)Oc1ccccc1C(=O)O` [Aspirin], the “Experimental log S” value [1] is listed as -1.72.
In the case of `CCOC(=O)c1ccc(N)cc1` [Benzocaine], the “Experimental log S” value [1] is listed as -2.32.
For `Cn1c(=O)c2c(ncn2C)n(C)c1=O` [Caffeine], the “Pe (10-6 cm s-1) Experimental 1” value [2] was 1.3 10-6 cm s-1, the “Pe (10-6 cm s-1) Experimental 2” value [2] was 0.87 10-6 cm s-1 and the “Pe (10-6 cm s-1) Experimental 3” value [2] was 1.70 10-6 cm s-1.
In the case of `CCOP(=S)(OCC)Oc1nc(Cl)c(Cl)cc1Cl` [Chlorpyriphos], the “Experimental log S” value [1] is listed as -5.49.
For `CNCCCN1c2ccccc2CCc2ccccc21` [Desipramine], the “Pe (10-6 cm s-1) Experimental 2” value [2] was 16.20 10-6 cm s-1 and the “Pe (10-6 cm s-1) Experimental 3” value [2] was 13.70 10-6 cm s-1.
In the case of `CN(C)C(=O)Nc1ccc(Cl)c(Cl)c1` [Diuron], the “Experimental log S” value [1] is listed as -3.80.
In the case of `CCn1cc(C(=O)O)c(=O)c2cc(F)c(N3CCNCC3)nc21` [Enoxacin], the “Pe (10-6 cm s-1) Experimental 1” value [2] is reported as 1.4 10-6 cm s-1, the “Pe (10-6 cm s-1) Experimental 2” value [2] is reported as 1.30 10-6 cm s-1 and the “Pe (10-6 cm s-1) Experimental 3” value [2] is reported as 1.47 10-6 cm s-1.
In the case of `O=C(CN1CCCCC1)NN1c2ccccc2Sc2ccccc21` [FD44], the “reported inhibition of the NCS-1/Ric8a interaction” value (NCS-1/Ric8a interaction) is given as “strong”.
For `O=C(CC(c1ccccc1)c1ccccc1)Nc1nc2ccccc2s1` [IGS-1.76], the “reported inhibition of the NCS-1/Ric8a interaction” value (NCS-1/Ric8a interaction) is given as “strong”.
In the case of `Cl[C@H]1[C@H](Cl)[C@@H](Cl)[C@@H](Cl)[C@H](Cl)[C@H]1Cl` [Lindane], the “Experimental log S” value [1] is given as -4.64.
For `CCOC(=O)CC(SP(=S)(OC)OC)C(=O)OCC` (stereo not shown) [Malathion], the “Experimental log S” value [1] is listed as -3.37.
In the case of `O=C1CN(/N=C/c2ccc([N+](=O)[O-])o2)C(=O)N1` [Nitrofurantoin], the “Experimental log S” value [1] is given as -3.47.
In the case of `CCOP(=S)(OCC)Oc1ccc([N+](=O)[O-])cc1` [Parathion], the “Experimental log S” value [1] is listed as -4.66.
For `O=C1OC(c2ccc(O)cc2)(c2ccc(O)cc2)c2ccccc21` [Phenolpthalein], the “Experimental log S” value [1] is listed as -2.60.
In the case of `O=C1NC(=O)C(c2ccccc2)(c2ccccc2)N1` [Phenytoin], the “Experimental log S” value [1] is listed as -3.99.
In the case of `CN1C(C(=O)Nc2ccccn2)=C(O)c2ccccc2S1(=O)=O` [Piroxicam], the Papp at 2.5 h [2] is reported as 1.3 ± 0.2 ×10⁻⁶ cm/s, the “Pe (10-6 cm s-1) Experimental 1” value [2] is reported as 1.3 10-6 cm s-1 and the “Pe (10-6 cm s-1) Experimental 2” value [2] is reported as 1.16 10-6 cm s-1. For the same compound, the “Pe (10-6 cm s-1) Experimental 3” value [2] was 1.44 10-6 cm s-1.
In the case of `CN(C)CCCN1c2ccccc2Sc2ccccc21` [Promazine], the Papp at 2.5 h [2] is reported as 9.5 ± 0.6 ×10⁻⁶ cm/s, the “Pe (10-6 cm s-1) Experimental 1” value [2] is reported as 9.5 10-6 cm s-1 and the “Pe (10-6 cm s-1) Experimental 2” value [2] is reported as 9.04 10-6 cm s-1. The “Pe (10-6 cm s-1) Experimental 3” value [2] was 9.94 10-6 cm s-1.
